PubChem BioAssay (NCI)
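Exposure lasted 48 hours, with cells grown in 96-well plates and compounds tested at five concentrations. At the GI50, growth is halved. The concentration for full growth arrest is given as TGI.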

What was measured:
Assay in all cases: DTP human tumour cell line panel, 48 h
MALME-3M melanoma = tested on: MALME-3M melanoma
SW-620 colon = tested on: SW-620 colon
SNB-19 CNS = tested on: SNB-19 CNS
PC-3 prostate = tested on: PC-3 prostate
MDA-MB-231 breast = tested on: MDA-MB-231 breast
TK-10 renal = tested on: TK-10 renal
HOP-92 NSCLC = tested on: HOP-92 NSCLC
CCRF-CEM leukemia = tested on: CCRF-CEM leukemia
OVCAR-4 ovarian = tested on: OVCAR-4 ovarian
EKVX NSCLC = tested on: EKVX NSCLC
IGROV1 ovarian = tested on: IGROV1 ovarian
786-0 renal = tested on: 786-0 renal
OVCAR-5 ovarian = tested on: OVCAR-5 ovarian
NCI/ADR-RES ovarian = tested on: NCI/ADR-RES ovarian
CAKI-1 renal = tested on: CAKI-1 renal
SK-MEL-2 melanoma = tested on: SK-MEL-2 melanoma
U251 CNS = tested on: U251 CNS
A498 renal = tested on: A498 renal
COLO 205 colon = tested on: COLO 205 colon
OVCAR-8 ovarian = tested on: OVCAR-8 ovarian
KM12 colon = tested on: KM12 colon
SF-268 CNS = tested on: SF-268 CNS
SK-MEL-28 melanoma = tested on: SK-MEL-28 melanoma
HCT-116 colon = tested on: HCT-116 colon
MOLT-4 leukemia = tested on: MOLT-4 leukemia
M14 melanoma = tested on: M14 melanoma
A549 NSCLC = tested on: A549 NSCLC
UACC-257 melanoma = tested on: UACC-257 melanoma
HL-60(TB) leukemia = tested on: HL-60(TB) leukemia
SNB-75 CNS = tested on: SNB-75 CNS
DU-145 prostate = tested on: DU-145 prostate
SK-OV-3 ovarian = tested on: SK-OV-3 ovarian
SK-MEL-5 melanoma = tested on: SK-MEL-5 melanoma
K-562 leukemia = tested on: K-562 leukemia
SR leukemia = tested on: SR leukemia
OVCAR-3 ovarian = tested on: OVCAR-3 ovarian
NCI-H460 lung = tested on: NCI-H460 lung
NCI-H23 lung = tested on: NCI-H23 lung
RPMI-8226 leukemia = tested on: RPMI-8226 leukemia
HCC-2998 colon = tested on: HCC-2998 colon
T-47D breast = tested on: T-47D breast
LOX IMVI melanoma = tested on: LOX IMVI melanoma
UACC-62 melanoma = tested on: UACC-62 melanoma
SF-539 CNS = tested on: SF-539 CNS
BT-549 breast = tested on: BT-549 breast
RXF 393 renal = tested on: RXF 393 renal
SN12C renal = tested on: SN12C renal
SF-295 CNS = tested on: SF-295 CNS
HOP-62 NSCLC = tested on: HOP-62 NSCLC
UO-31 renal = tested on: UO-31 renal
HT29 colon = tested on: HT29 colon
MCF7 breast = tested on: MCF7 breast
NCI-H522 lung = tested on: NCI-H522 lung
MDA-MB-435 = tested on: MDA-MB-435
HS 578T breast = tested on: HS 578T breast
HCT-15 colon = tested on: HCT-15 colon
ACHN renal = tested on: ACHN renal

## c1ccc2cc(-c3n(Cc4ccc5ccccc5n4)c4ccccc4[n+]3Cc3ccc4ccccc4n3)ccc2c1
MALME-3M melanoma
  GI50: 379 nM
  TGI: 1690 nM
SW-620 colon
  GI50: 346 nM
  TGI: 1420 nM
SNB-19 CNS
  GI50: 315 nM
  TGI: 1320 nM
PC-3 prostate
  GI50: 184 nM
  TGI: 1120 nM
MDA-MB-231 breast
  GI50: 307 nM
  TGI: 1320 nM
TK-10 renal
  GI50: 413 nM
  TGI: 1830 nM
HOP-92 NSCLC
  GI50: 136 nM
  TGI: 517 nM
CCRF-CEM leukemia
  GI50: 333 nM
  TGI: 1670 nM
OVCAR-4 ovarian
  GI50: 255 nM
  TGI: 1130 nM
EKVX NSCLC
  GI50: 517 nM
  TGI: 2080 nM
IGROV1 ovarian
  GI50: 290 nM
  TGI: 1280 nM
786-0 renal
  GI50: 392 nM
  TGI: 1720 nM
OVCAR-5 ovarian
  GI50: 368 nM
  TGI: 1470 nM
NCI/ADR-RES ovarian
  GI50: 6600 nM
  TGI: 26400 nM
CAKI-1 renal
  GI50: 655 nM
  TGI: 2000 nM
SK-MEL-2 melanoma
  GI50: 283 nM
  TGI: 1010 nM
U251 CNS
  GI50: 242 nM
  TGI: 1140 nM
A498 renal
  GI50: 121 nM
  TGI: 801 nM
COLO 205 colon
  GI50: 171 nM
  TGI: 346 nM
OVCAR-8 ovarian
  GI50: 297 nM
  TGI: 1220 nM
KM12 colon
  GI50: 321 nM
  TGI: 1210 nM
SF-268 CNS
  GI50: 332 nM
  TGI: 1420 nM
SK-MEL-28 melanoma
  GI50: 423 nM
  TGI: 1650 nM
HCT-116 colon
  GI50: 272 nM
  TGI: 1120 nM
MOLT-4 leukemia
  GI50: 348 nM
  TGI: 1400 nM
M14 melanoma
  GI50: 307 nM
  TGI: 1530 nM
A549 NSCLC
  GI50: 349 nM
  TGI: 1510 nM
UACC-257 melanoma
  GI50: 275 nM
  TGI: 1040 nM
HL-60(TB) leukemia
  GI50: 152 nM
  TGI: 462 nM
SNB-75 CNS
  GI50: 190 nM
  TGI: 746 nM
DU-145 prostate
  GI50: 395 nM
  TGI: 1650 nM
SK-OV-3 ovarian
  GI50: 268 nM
  TGI: 912 nM
SK-MEL-5 melanoma
  GI50: 201 nM
  TGI: 422 nM
K-562 leukemia
  GI50: 160 nM
  TGI: 1390 nM
SR leukemia
  GI50: 362 nM
  TGI: 1420 nM
OVCAR-3 ovarian
  GI50: 314 nM
  TGI: 1390 nM
NCI-H460 lung
  GI50: 361 nM
  TGI: 1310 nM
NCI-H23 lung
  GI50: 285 nM
  TGI: 1090 nM
RPMI-8226 leukemia
  GI50: 80.2 nM
  TGI: 520 nM
HCC-2998 colon
  GI50: 344 nM
  TGI: 1460 nM
T-47D breast
  GI50: 222 nM
  TGI: 1280 nM
LOX IMVI melanoma
  GI50: 259 nM
  TGI: 837 nM
UACC-62 melanoma
  GI50: 339 nM
  TGI: 1320 nM
SF-539 CNS
  GI50: 390 nM
  TGI: 1430 nM
BT-549 breast
  GI50: 316 nM
  TGI: 1250 nM
RXF 393 renal
  GI50: 245 nM
  TGI: 1240 nM
SN12C renal
  GI50: 298 nM
  TGI: 1110 nM
SF-295 CNS
  GI50: 301 nM
  TGI: 1090 nM
HOP-62 NSCLC
  GI50: 363 nM
  TGI: 1490 nM
UO-31 renal
  GI50: 1340 nM
  TGI: 2660 nM
HT29 colon
  GI50: 256 nM
  TGI: 1190 nM
MCF7 breast
  GI50: 277 nM
  TGI: 1140 nM
NCI-H522 lung
  GI50: 321 nM
  TGI: 1250 nM
MDA-MB-435
  GI50: 369 nM
  TGI: 1350 nM
HS 578T breast
  GI50: 343 nM
  TGI: 1700 nM
HCT-15 colon
  GI50: 1600 nM
  TGI: 3180 nM
ACHN renal
  GI50: 717 nM
  TGI: 1950 nM
